Test results reported in the NIST ThermoML archive (doi:10.1016/j.jct.2016.08.004).

Experiment: mn = molality of the nth substance listed, in mol/kg
Details: 101 kPa, Liquid; for viscosity: Capillary tube (Ostwald / Ubbelohde) method; for mass density: Vibrating tube method

Cc1ncc(CO)c(CO)c1O.Cl [5-hydroxy-6-methyl-3,4-pyridinedimethanol hydrochloride] + O
Details	mass density, 288.15 K [kg/m3]	mass density, 298.15 K [kg/m3]	mass density, 308.15 K [kg/m3]	mass density, 318.15 K [kg/m3]	viscosity, 288.15 K [mPa·s]	viscosity, 298.15 K [mPa·s]	viscosity, 308.15 K [mPa·s]	viscosity, 318.15 K [mPa·s]
m1 = 0.0202	1000.32	998.28	995.25	991.43	1.145	0.8984	0.7266	0.6009
m1 = 0.0365	1001.26	999.22	996.18	992.35	1.151	0.9043	0.7312	0.6048
m1 = 0.0529	1002.19	1000.15	997.09	993.26	1.157	0.9103	0.7358	0.6087
m1 = 0.0695	1003.11	1001.07	997.99	994.16	1.163	0.9163	0.7404	0.6127
m1 = 0.0863	1003.98	1001.99	998.89	995.06	1.169	0.9224	0.7451	0.6168
m1 = 0.1032	1004.86	1002.9	999.78	995.96	1.175	0.9286	0.7498	0.6209
